Data set [1] relates to Bacillus subtilis spores. Description: spore suspension test, killing of Bacillus subtilis spores. The settings on record: for Log Reduction/mL, 8 hr: 8 hr exposure; for Log Reduction/mL, 4 hr: 4 hr exposure; for Log Reduction/mL, 24 hr: 24 hr exposure; for Log Reduction/mL (3 hr, 20° C., pH = 8): 3 hr exposure. Type of data set: cell-based.
In data set [2] the test system is Bacillus subtilis spores. The following applies: cited from earlier work.
Another data set has as its system spores. The settings on record: 0.3% (w/v) NaHCO3 added; cited from earlier work.
The conditions of data set [3]: cited from earlier work.
For data set [4], the system named is Clostridium sporogenes spores. The following applies: cited from earlier work.
Data set [5] is described as follows: storage stability of phthalaldehyde solution (loss by Cannizzaro reaction). Type of data set: physicochemical. The settings on record: about 11 weeks. The source says: Overall, the Cannizzaro reaction generally leads to loss of phthalaldehyde and a decrease in the germicidal efficacy of the solution. While a pH of from 6 to 10, or 7.5 to 9 generally enhances the efficacy of the phthalaldehyde-carbonate solution, the higher or alkaline pH also generally promotes the Cannizzaro reaction. […] However, about 14% of the phthalaldehyde may be lost if the same solution is stored for about 11 weeks at a pH of 9, at room temperature. Even more of the phthalaldehyde may be converted if the storage period is longer, if the temperature is higher, or if the pH is higher than 9.

The subject of the next data set is Mycobacterium bovis BCG. The settings on record: at least 0.25% by weight phthalaldehyde as sole active ingredient, 20° C.; cited from earlier work.
The test system of data set [6] is Bacillus subtilis spores. The settings on record: cited from earlier work. This is another data set of the same source.
The conditions of data set [7]: pH range of 3 to 9; cited from earlier work.
The mark [8] stands for this setting: 20° C., composition and pH per label.
The mark [9] stands for this setting: 0.25% phthalaldehyde as sole active ingredient, 20° C.

Where “and” joins values, the source holds several entries; their conditions need not be identical. Identical values can stand only once. Like-named read-outs stand apart in the source and are kept apart here. Some results are limits rather than exact numbers.

`[F-].[Na+]` [1000 mM NaF, sodium fluoride]: in the data set with Bacillus subtilis spores [1] (20° C.), the “Log Reduction/mL, 8 hr” value is on record as 0.0 log/mL.
For the compound `CC(=O)OO` [peracetic acid], the “effect of salt concentration on sporicidal activity” value (“effect of salt concentration” for short) with Bacillus subtilis spores [2] (salt ranging from 0 to 1M) is listed as “not affected”.
With `OO` [hydrogen peroxide], the “effect of salt concentration” value in the data set on Bacillus subtilis spores [2] (salt ranging from 0 to 1M) is reported as “not affected”.
On to `[Br-].[Na+]` [1000 mM NaBr, sodium bromide], for which, in the data set with Bacillus subtilis spores [1] (setting [8]), the “Log Reduction/mL, 4 hr” value was found to be 0.0 log/mL. In addition, the “Log Reduction/mL, 24 hr” value in the data set with Bacillus subtilis spores [1] (20° C.) is 0.1 log/mL.
Turning to `[F-].[K+]` [1000 mM KF, potassium fluoride], in the data set on Bacillus subtilis spores [1] (20° C.), the “Log Reduction/mL, 8 hr” value is listed as 0.0 log/mL and the “Log Reduction/mL, 24 hr” value came out at 0.1 log/mL. In addition, in the data set with Bacillus subtilis spores [1], the “Log Reduction/mL (3 hr, 20° C., pH = 8)” value amounted to 0.0 log/mL.
Regarding `CCCC=O` [butyraldehyde], the “effect of addition of NaHCO3 on sporicidal action” value with spores is reported as “did not affect”.
Take cupric ascorbate: the “effect of salt concentration” value with Bacillus subtilis spores [2] (salt ranging from 0 to 1M) is given as “not affected”.
Consider `OCl` [sodium hypochlorite], for which the “effect of salt concentration” value in the data set on Bacillus subtilis spores [2] (salt ranging from 0 to 1M) is “not affected”.
Consider `O=CCCCC=O` [2.4% Glutaraldehyde, glutaraldehyde], for which the “effect of salt concentration” value in the data set with Bacillus subtilis spores [2] (salt ranging from 0 to 1M) is on record as “increasing with an increase in concentration of sodium bicarbonate or sodium chloride”. Besides, the “Log Reduction/mL (3 hr, 20° C., pH = 8)” value with Bacillus subtilis spores [1] is recorded as <1.1 log/mL.
Turning to `O=CC=O` [glyoxal], in the data set with spores, the “effect of addition of NaHCO3 on sporicidal action” value is “did not affect”.
Turning to `[I-].[Na+]` [1000 mM NaI, sodium iodide], in the data set with Bacillus subtilis spores [1] (setting [8]), the “Log Reduction/mL, 4 hr” value worked out at 0.0 log/mL. Moreover, in the data set with Bacillus subtilis spores [1] (20° C.), the “Log Reduction/mL, 8 hr” value is given as 0.0 log/mL and the “Log Reduction/mL, 24 hr” value turned out to be 0.1 log/mL.
For `[Cl-].[Na+]` [1000 mM NaCl, sodium chloride], the “Log Reduction/mL, 24 hr” value in the data set on Bacillus subtilis spores [1] (20° C.) is listed as 0.2 log/mL.
As to `[I-].[K+]` [1000 mM KI, potassium iodide], the “Log Reduction/mL (3 hr, 20° C., pH = 8)” value with Bacillus subtilis spores [1] was 0.0 log/mL.
In the case of `O=Cc1ccccc1C=O` [0.3% OPA, phthalaldehyde], in data set [3], the solubility in water result is recorded as “about 5 % by weight”. The “time for sporicidal activity” value (in [4] (setting [9]); in the data set on Bacillus subtilis spores [6] (setting [9])) was 24 h in each case. Further, the “time to achieve sterilization” value (in data set [4] (1.0% phthalaldehyde); in the data set with Bacillus subtilis spores [6] (1.0% phthalaldehyde)) was 10 h in each case. Besides, the “loss of phthalaldehyde on storage” value in data set [5] (pH 7 or lower, room temperature to about 40° C.) is reported as “without a noticeable loss”. For the same compound, the “phthalaldehyde lost on storage” value in [5] (pH 9, room temperature) is “about 14%”. Also, the “time to kill all Mycobacterium bovis BCG in contact (high-level disinfection)” value in the data set with Mycobacterium bovis BCG was ≤ 10 min. In the data set with Bacillus subtilis spores [1] (20° C., 2 hr exposure, composition and pH per label), the “Log Reduction/mL, 2 hr” value was 0.4 log/mL. For the same compound, the “Log Reduction/mL, 6 hr” value in the data set on Bacillus subtilis spores [1] (20° C., 6 hr exposure) is listed as 0.7 log/mL. Further, the “Log Reduction/mL, 8 hr” value with Bacillus subtilis spores [1] (20° C.) was ~0.6 log/mL. Further, the “Log Reduction/mL (3 hr, 20° C., pH = 8)” value in the data set with Bacillus subtilis spores [1] is recorded as 0.10 log/mL. Moreover, the “Log Reduction/mL (20° C., 4 hrs), [NaHCO3], 63 mM” value with Bacillus subtilis spores [1] (4 hrs, labelled solution additionally contains 63 mM NaHCO3) is 1.5 log/mL and 1.4 log/mL. In addition, in the data set with Bacillus subtilis spores [1] (4 hrs, labelled solution additionally contains 63 mM phosphate), the “Log Reduction/mL (20° C., 4 hrs), [Phosphate], 63 mM” value was 0.7 log/mL. For the same compound, the “Log Reduction/mL (20° C., 4 hrs), [NaF], 400 mM” value in the data set on Bacillus subtilis spores [1] (4 hrs, labelled solution additionally contains 400 mM NaF) amounted to 4.7 log/mL. In addition, the “Log Reduction/mL (20° C., 4 hrs), [NaF], 0 mM” value in the data set on Bacillus subtilis spores [1] (4 hrs, no NaF added to the labelled solution) came out at 0.4 log/mL. For the same compound, in the data set on Bacillus subtilis spores [1] (4 hrs, no NaHCO3), the “Log Reduction/mL (20° C., 4 hrs), [NaHCO3], 0 mM” value is given as 0.5 log/mL. Besides, in the data set on Bacillus subtilis spores [1] (4 hrs, no phosphate), the “Log Reduction/mL (20° C., 4 hrs), [Phosphate], 0 mM” value came to 0.4 log/mL. For the same compound, in data set [7], the “storage stability of single-component compositions” value is “excellent stability”.
Consider `[F-].[Li+]` [100 mM LiF, lithium fluoride], for which the “Log Reduction/mL, 24 hr” value in the data set with Bacillus subtilis spores [1] (20° C.) turned out to be 0.0 log/mL.
For the compound `Oc1ccccc1` [phenol], the “effect of salt concentration” value in the data set with Bacillus subtilis spores [2] is recorded as “not affected”.
